Earlier results on one compound are cited in patent publication US20060153908A1, “Spherical pellet formulations” (priority 2002, published 2006).

SMILES strings stand for the structures. Structures can show the parent of a compound that is named as a salt.

The conditions of this data set: in water.

For the compound `COc1cccc(C2(O)CCCCC2CN(C)C)c1` (single isomer, unassigned) [Tramadol hydrochloride, (1R,2R or 1S,2S)-2-[(dimethylamino)methyl]-1-(3-methoxyphenyl)-cyclohexanol], the water solubility result is given as “very water-soluble”.
